Laboratory results as given in patent publication US20040185102A1, “Dosage forms comprising a CETP inhibitor and an HMG-CoA reductase inhibitor” (Pfizer Inc, priority 2002, published 2004).

Tests used:
[1] = in vitro dissolution test using a microcentrifuge method; assay type: physicochemical; settings: for AUC / Torcetrapib Concentration: PBS pH 6.5, 37° C.; for Torcetrapib Concentration: 1000 μg/mL if all drug dissolved
Procedure: The spray-dried solid amorphous dispersion was evaluated in an in vitro dissolution test using a microcentrifuge method. In this test, 7.2 mg of the spray-dried solid amorphous dispersion was placed into a microcentrifuge tube. The tube was placed in a 37° C. sonicating bath, and 1.8 mL phosphate buffered saline (PBS) at pH 6.5 and 290 mOsm/kg was added, resulting in a torcetrapib concentration of 1000 μg/mL if all of the drug had dissolved. The sample was quickly mixed using a vortex mixer for about 60 seconds. The sample was centrifuged at 13,000 G at 37° C. for 1 minute. The resulting supernatant solution was then sampled and diluted 1:6 (by volume with methanol and then analyzed by high-performance liquid chromatography (HPLC). The contents of the tube was mixed on the vortex mixer and allowed to stand undisturbed at 37° C. until the next sample was taken. Samples were collected at 4, 10, 20, 40, 90, and 1200 minutes. The concentrations of drug obtained in these samples are shown in Table 1, which represent the average of duplicate tests.
As a control, an in vitro dissolution test was performed using the procedures described above except that 1.8 mg of crystalline drug was used. […]

aqueous solubility = assay type: physicochemical

AUC90 (area under the aqueous concentration versus time curve after 90 minutes) ([1]; receptor solution PBS): <88 min-μg/mL | Cmax,90 (maximum concentration of torcetrapib in solution during the first 90 minutes) ([1]; receptor solution PBS): <1000 ng/mL | AUC ([1]; time 0 min): 0 min-μg/mL | Torcetrapib Concentration ([1]; time 0 min): 0 µg/mL | AUC ([1]; time 4 min): <2 min-μg/mL | Torcetrapib Concentration ([1]; time 4 min): <1 µg/mL | AUC ([1]; time 10 min): <8 min-μg/mL | Torcetrapib Concentration ([1]; time 10 min): <1 µg/mL | AUC ([1]; time 20 min): <18 min-μg/mL | Torcetrapib Concentration ([1]; time 20 min): <1 µg/mL | AUC ([1]; time 40 min): <38 min-μg/mL | Torcetrapib Concentration ([1]; time 40 min): <1 µg/mL | AUC ([1]; time 90 min): <88 min-μg/mL | Torcetrapib Concentration ([1]; time 90 min): <1 µg/mL | AUC ([1]; time 1200 min): <1,200 min-μg/mL | Torcetrapib Concentration ([1]; time 1200 min): <1 µg/mL | solubility (aqueous solubility): < 0.04 µg/mL
SMILES: CCOC(=O)N1c2ccc(C(F)(F)F)cc2[C@@H](N(Cc2cc(C(F)(F)F)cc(C(F)(F)F)c2)C(=O)OC)C[C@H]1CC [Crystalline Drug, [2R,4S]-4-[(3,5-bis-trifluoromethyl-benzyl)-methoxycarbonyl-amino]-2-ethyl-6-trifluoromethyl-3,4-dihydro-2H-quinoline-1-carboxylic acid ethyl ester]
